Literature values in patent publication US20230372315A1, “Liquid-State Pharmaceutical Composition Exhibiting Excellent Preservative Effectiveness” (ISHIHARA SANGYO KAISHA, LTD., priority 2020, published 2023).

Columns and labels:
[1] = beyond pH8
[2] = water having pH5 or less

Row | solubility in water [2] | Structure (SMILES) | antibacterial activity [1]
1 |  | OCc1ccccc1 [Benzyl alcohol] | virtually no antibacterial activity
2 | virtually not dissolved | CCS(=O)(=O)Nc1ncc(C(F)(F)F)cc1NC(=O)C1CCCCC1 [N-(2-ethylsulfonylamino-5-trifluoromethyl-3-pyridyl)cyclohexanecarboxamide] | 
